Data: patent publication US9345696B2, “Methods for treating nicotinic acetylcholine receptor associated diseases” (priority 2010, dated 2016)

Legend:
[1] = test system: binocular zone of V1 of Lynx1 knockout and wild-type mice; assay: Ocular dominance plasticity after short-term monocular deprivation, extracellular recording in vivo (contralateral bias index); design: species or system mouse; conditions: for effect on adult ocular dominance plasticity in Lynx1 knockout mice (in words): concurrent with short-term MD
Description: (§1) Eyelid margins were trimmed by iris scissor and eyes sutured shut under isoflurane anesthesia. Eyes were closed 4-5 days for short term MD (STMD), from P19 to >P60 for long term MD (CP-LTMD), and from P19 to P33 for recovery studies.
Electrophysiological recording was performed under nembutal/chlorprothixene anesthesia using standard techniques for mice (T. K. Hensch et al., Science 282: 1504 (1998); J. A. Gordon, M. P. Stryker, J Neurosci 16: 3274 (1996). Ocular dominance in the binocular zone of each mouse was calculated as a contralateral bias index (CBI): [(n1−n7)+2/3(n2−n6)+⅓(n3−n5)+N]/2N, where N=total number of cells and nx=number of cells corresponding to ocular dominance score of x (J. A. Gordon, M. P. Stryker, J Neurosci 16, 3274 (1996)). For statistical comparison of OD distributions, normalized OD scores of single neurons were plotted as cumulative distribution for each experimental group. OD score was computed by PSTH analysis of peak to baseline spiking activity in response to each eye: {[Peak(ipsi)−baseline(ipsi)]−[Peak(contra)-baseline(contra)]}/{[Peak(ipsi)-baseline(ipsi)]+[Peak(contra)-baseline(contra)]}(T. Pizzorusso et al., Science, 298: 1248 (2002)).

V1 of wild-type mice = assay: Recovery from amblyopia: visual acuity by visual evoked potentials in V1 after long-term MD and eye reopening; format: in vivo, mouse; conditions: WT mice
Description: as §1

Row | Structure (SMILES) | effect on adult ocular dominance plasticity in Lynx1 knockout mice (in words) ([1]; adult Lynx1 KO mice) | contralateral bias index (CBI) ([1]; adult Lynx1 KO mice, no MD, with mecamylamine) | contralateral bias index (CBI) ([1]; adult Lynx1 KO mice, short-term MD with concurrent nAChR antagonist (systemic i.p. daily or cortical minipump infusion)) | contralateral bias index (CBI) ([1]; adult WT mice, short-term MD with concurrent mecamylamine) | Visual acuity (VEP) (V1 of wild-type mice; LTMD P19 to P33, deprived eye reopened, 0.1 mg/kg i.p. daily from P45, recorded >P60) | Visual acuity (VEP) (V1 of wild-type mice; no MD, with AChEI) | contralateral bias index (CBI) ([1]; adult Lynx1 KO mice, adult MD, focal infusion into V1 by osmotic minipump)
1 | CNC1(C)C2CCC(C2)C1(C)C (centres unmarked) [mecamylamine] | sufficient to prevent adult plasticity | 0.68 | 0.68 | 0.69 | – | – | –
2 | CNC(=O)Oc1ccc2c(c1)[C@]1(C)CCN(C)[C@@H]1N2C [physostigmine] | – | – | – | – | 0.48±0.06 cyc/deg | 0.47±0.02 cyc/deg | –
3 | CN1C(=O)CN=C(c2ccccc2)c2cc(Cl)ccc21 [Diazepam] | abolished adult plasticity | – | – | – | – | – | 0.67
